What all share (type): biochemical
Assay [1] deals with T1, human recombinant caspase 3 (Homo sapiens, UniProt P42574).
T1 construct: purchased CALBIOCHEM 235417
T1 sequence (P42574 29-175 limits assumed): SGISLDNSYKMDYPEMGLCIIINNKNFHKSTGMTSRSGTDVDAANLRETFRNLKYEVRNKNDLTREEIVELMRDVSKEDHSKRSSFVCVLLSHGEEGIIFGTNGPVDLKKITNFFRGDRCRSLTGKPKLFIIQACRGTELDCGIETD
T1 sequence (P42574 176-277 limits assumed): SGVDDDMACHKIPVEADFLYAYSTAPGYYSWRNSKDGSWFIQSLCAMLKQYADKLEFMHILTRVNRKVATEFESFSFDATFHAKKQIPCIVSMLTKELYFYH
Briefly: Assay of inhibitory activity against human recombinant caspase 3 (fluorogenic substrate Ac-DEVD-MCA). The conditions noted are these: for specificity of the enzyme inhibitory activity (in words): caspase 3 versus cathepsins and trypsin. The procedure: A reaction buffer containing 10% sucrose, 0.1% CHAPS, 2 mM dithiothreitol in 25 mM HEPES (pH 7.5) is prepared. […] Thereto is added 25 μl of human recombinant caspase 3 (CALBIOCHEM catalog No. 235417), 500 U/ml, to start the reaction. After incubation at room temperature for 2 hr. the reaction quench buffer (0.1 M monochloroacetic acids 0.03 M sodium acetate, 0.15 M acetic acid (pH 4.3)) is added by 100 μl per well. The fluorescence of 7-amino-4-methylcoumarin ([…]) released by the enzyme reaction is measured using a fluorophotometer (Ex. 355 nm, Em. 460 nm).
The compounds of the above-mentioned 1. were examined for the activity inhibitory action on human recombinant caspase 3.

Another assay concerns the target cathepsin B (Homo sapiens, UniProt P07858). Nature of the assay: Enzyme specificity assay, cathepsin B (substrate Z-Arg-Arg-MNA). Particulars: FIG. 2; phosphate buffer pH 5.5. The procedure:
(§1) The above-mentioned compound was assayed for the inhibitory activity using […], cathepsin L and trypsin as enzymes other than caspase 3 and by an assay method similar to the above-mentioned Example 1 using phosphate buffer, pH 5.5 (100 mM NaCl, 5-mM DTT, 4 mM EDTA) as a buffer, Z-Arg-Arg-MNA as a substrate for […], Z-Phe-Arg-MNA as a substrate for cathepsin L, and Boc-Phe-Ser-Arg-MCA as a substrate for trypsin.

The target in the next assay is T2, trypsin (Bos taurus, UniProt P00760).
T2 construct: gene PRSS1
T2 sequence (P00760 24-246): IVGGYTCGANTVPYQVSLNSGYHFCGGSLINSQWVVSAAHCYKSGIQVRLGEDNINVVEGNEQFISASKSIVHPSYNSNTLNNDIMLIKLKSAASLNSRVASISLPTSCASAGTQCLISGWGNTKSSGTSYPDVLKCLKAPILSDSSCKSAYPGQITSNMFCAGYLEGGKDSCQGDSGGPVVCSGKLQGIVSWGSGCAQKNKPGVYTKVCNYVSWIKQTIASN
Briefly: Enzyme specificity assay, trypsin (substrate Boc-Phe-Ser-Arg-MCA). Particulars: FIG. 2; phosphate buffer pH 5.5. The procedure:
as §1

For the next assay, the target named is cathepsin L (Homo sapiens, UniProt P07711). Briefly: Enzyme specificity assay, cathepsin L (substrate Z-Phe-Arg-MNA). Particulars: FIG. 2; phosphate buffer pH 5.5. The procedure: as §1
Chain of cathepsin L (P07711 114-333, species assumed): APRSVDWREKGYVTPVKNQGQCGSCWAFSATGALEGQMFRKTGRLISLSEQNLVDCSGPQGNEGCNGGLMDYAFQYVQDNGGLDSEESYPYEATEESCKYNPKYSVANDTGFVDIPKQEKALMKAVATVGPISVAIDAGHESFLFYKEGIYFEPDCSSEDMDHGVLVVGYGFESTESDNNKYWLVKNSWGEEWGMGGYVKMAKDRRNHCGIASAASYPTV
Where [2] appears, read: FIG. 1 lower panel, read-out: IC50, inhibitory activity against human recombinant caspase 3.
[3] abbreviates: FIG. 1 upper panel, read-out: IC50, inhibitory activity against human recombinant caspase 3.

Like-named read-outs stand apart in the source and are kept apart here.

For the compound cyanoimidazolylcobamide, the IC50 in assay [1] (setting [2]) came out at 91.2 nM.

Regarding `C/C1=C2/[N-]C([C@H](CC(N)=O)[C@@]2(C)CCC(=O)NCC(C)O)[C@]2(C)N=C(/C(C)=C3N=C(/C=C4N=C1[C@@H](CCC(N)=O)C\4(C)C)[C@@H](CCC(N)=O)[C@]\3(C)CC(N)=O)[C@@H](CCC(N)=O)[C@]2(C)CC(N)=O.[C-]#N.[C-]#N.[Co]` (some centres unmarked) [dicyanocobinamide], the IC50 is 102 nM against cathepsin B; more than 5000 nM against trypsin; 6.12 nM against cathepsin L; 0.142 nM in assay [1] (setting [2]); 0.28 nM in assay [1] (setting [3]); 0.28 nM in assay [1] (FIG. 2, read-out: IC50, caspase (Enzyme Specificity)). Moreover, the “caspase 3 inhibitory activity (in words)” value in assay [1] (FIG. 1, compared with DEVD, standard product) was “far stronger than the inhibitory activity of DEVD”. Besides, the “specificity of the enzyme inhibitory activity (in words)” value in assay [1] (FIG. 2) is given as “strongest inhibitory activity against caspase 3”. For the same compound, the “Inhibitory mode against human recombinant caspase 3 (Lineweaver-Burk plot)” value in assay [1] (FIG. 3, different substrate concentrations (2, 4, 6 and 8 nM)) is recorded as “competitively inhibits the substrate for caspase 3”.

cyanocobalamin [reference compound]: the IC50 in assay [1] (setting [2]) amounted to 1760 nM; in assay [1] (setting [3]), 2100 nM.

For the compound `CC(=O)N[C@@H](CC(=O)O)C(=O)N[C@@H](CCC(=O)O)C(=O)N[C@H](C(=O)N[C@H](C=O)CC(=O)O)C(C)C` [DEVD, acetyl-L-aspartyl-L-glutamyl-L-valyl-L-aspart-1-al, reference compound], the results for the 50% inhibitory concentration (IC50) on cathepsin B, on trypsin and at cathepsin L were 672 nM, more than 100000 nM and 17400 nM, respectively. The “specificity of the enzyme inhibitory activity (in words)” value in assay [1] (FIG. 2) is reported as “strongest inhibitory activity against caspase 3”.

With `C=CC1=C(C)c2cc3[n-]c(cc4nc(cc5[n-]c(cc1n2)c(C)c5CCC(=O)[O-])C(CCC(=O)[O-])=C4C)c(C)c3C=C.[Co+2].[H+].[H+]` [cobalt protoporphyrin], the IC50 in assay [1] (setting [3]) came out at 13.1 nM.

By IC50 is commonly meant the concentration needed to halve the response being measured.
